# In patent publication US8071565B2 (Novartis AG, priority 2006, dated 2011):
# Counter-ions that a name gives are not always drawn.
# Target: adenosine A2A receptor (Homo sapiens, UniProt P29274)
# Experiment: adenosine A2A receptor agonist assay (method of Murphree et al, Mol Pharmacol 61, 455-462, 2002)
# Assay type: binding
# Conditions: method of L. J. Murphree et al
# Text: Compounds of formula (I) and their pharmaceutically acceptable salts are useful as pharmaceuticals. In particular, they activate the adenosine A2A receptor, i.e., they act as A2A receptor agonists.
# adenosine A2A receptor, sequence (P29274 whole entry): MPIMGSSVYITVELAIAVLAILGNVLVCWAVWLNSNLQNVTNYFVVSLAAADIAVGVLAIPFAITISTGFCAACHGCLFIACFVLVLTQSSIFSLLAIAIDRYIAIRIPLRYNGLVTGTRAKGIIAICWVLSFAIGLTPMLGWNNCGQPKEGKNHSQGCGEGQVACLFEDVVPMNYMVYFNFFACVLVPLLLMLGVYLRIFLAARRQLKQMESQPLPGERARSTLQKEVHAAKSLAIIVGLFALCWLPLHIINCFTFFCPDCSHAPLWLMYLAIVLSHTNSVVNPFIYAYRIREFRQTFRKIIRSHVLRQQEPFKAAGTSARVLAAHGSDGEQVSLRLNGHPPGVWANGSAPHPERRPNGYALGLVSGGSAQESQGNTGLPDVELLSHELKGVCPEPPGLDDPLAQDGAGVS
row,SMILES,Ki
1,C[C@@H]1NC(=O)N([C@H]2C[C@@H](n3cnc4c(NCC(c5ccccc5)c5ccccc5)nc(N5CC[C@@H](NC(=O)Nc6cccnc6)C5)nc43)[C@H](O)[C@@H]2O)C1=O [Example C1],89 nM
2,"O=C(Nc1cccnc1)N[C@@H]1CCN(c2nc(NCC(c3ccccc3)c3ccccc3)c3ncn([C@@H]4C[C@H](N5C(=O)CNC5=O)[C@@H](O)[C@H]4O)c3n2)C1 [Example C2, 1-{(R)-1-[9-[(1R,2S,3R,4S)-4-(2,5-Dioxo-imidazolidin-1-yl)-2,3-dihydroxy-cyclopentyl]-6-(2,2-diphenyl-ethylamino)-9H-purin-2-yl]-pyrrolidin-3-yl}-3-pyridin-3-yl-urea trifluoroacetate]",33 nM
